Assay results published in PMC9147789, “Development and Validation of a Novel LC-MS/MS Method for the Simultaneous Determination of Abemaciclib, Palbociclib, Ribociclib, Anastrozole, Letrozole, and Fulvestrant in Plasma Samples: A Prerequisite for Personalized Breast Cancer Treatment” (Pharmaceuticals, 2022).

What was measured:
[1] = Stability of the analytes in plasma (bench top, autosampler, freeze-thaw, long-term); type: physicochemical, human; details: for Stability Bias (%) 1 FT Cycle (30 min, −18–25 °C) / Stability Bias (%) 2 FT Cycles (30 min, −18–25 °C) / Stability Bias (%) 3 FT Cycles (30 min, −18–25 °C) / Stability Bias (%) Long-Term (2 Weeks, −18 °C): plasma; for Stability Bias (%) 1 FT Cycle (30 min, −18–25 °C) / Stability Bias (%) 2 FT Cycles (30 min, −18–25 °C) / Stability Bias (%) 3 FT Cycles (30 min, −18–25 °C) / Stability Bias (%) Long-Term (2 Weeks, −18 °C) / Stability Bias (%) Autosampler (10 h, 10 °C): N = 3; for Stability Bias (%) Autosampler (10 h, 10 °C): processed plasma sample; for Stability Bias (%) Bench Top (2 h, 25 °C): unprocessed plasma, N = 3, vs fresh QC
Procedure: Stability of the stock and working solutions was determined in the preliminary studies. […] Patient plasma samples were stored long-term at −80 °C. Since adequate stability of plasma samples was proven at −18 °C, it was deemed acceptable at lower temperatures as well. Lower- and higher-concentration QC samples were prepared in triplicate for each condition and time point and were analyzed against QC samples freshly prepared in triplicate.

[2] = plasma; cited from earlier work
[3] = LC-MS/MS quantitation of drugs in single-point patient plasma samples (therapeutic drug monitoring); type: in vivo, human
Procedure: Samples from ten women (ages 35 to 78, median 50.5 years) receiving regular treatment with a combination of a CDK4/6 inhibitor (PAL, RIB or ABE) and endocrine therapy (ANA, LET, FUL or exemestane, EXE) were obtained and analyzed using this LC-MS method. The samples were mostly taken in the elimination phase, during the patients’ regular visit to the hospital before the next dose administration, except in the case of patient 4 (sampling 1 h after dose administration). The aromatase inhibitors and ABE are continuously administered as single daily doses, FUL is a once-monthly intramuscular injection, and the dosing regimen of PAL and RIB involves a week off treatment every 21 days to minimize treatment-induced neutropenia.
The samples were analyzed against freshly prepared calibration curves. The results are listed in Table 7, while the accompanying chromatograms and mass spectra are included in the Supplementary Materials, Section 1, Figures S1–S29.
Healthy and patient blood samples were collected and pre-treated at the University Hospital Centre Zagreb, with signed informed consent. Patients receiving a combination of a CDK4/6 inhibitor and endocrine therapy as regular treatment for at least 4 months were enrolled.
Whole blood was collected in containers with K2-EDTA anticoagulant and centrifuged for 10 min at 1500 g; the supernatant was then withdrawn and stored at −18 °C (blank plasma) or −80 °C (patients’ plasma). Hemolyzed plasma was obtained by briefly freezing a whole blood sample at −18 °C before continuing with the procedure.
(§1) Calibration and QC samples were prepared by diluting 5 µL of the appropriate working solutions of the analytes with 45 µL of blank plasma in 1.5 mL polypropylene centrifuge tubes. In case of patient sample analysis, an aliquot of 50 µL of patient plasma was used. Proteins were precipitated by adding 200 µL of ACN, after which the samples were vortex-mixed for 10 s and centrifuged at 2000 g for 5 min. The resulting supernatant was collected and 200 µL was evaporated to dryness in a vacuum evaporator at room temperature. The dry residue was dissolved in 40 µL of 65% methanol, while 5 µL was injected into the chromatographic system.

[4] = Clinical pharmacokinetic evaluation of RIB in one patient, first day of a treatment cycle, non-compartmental analysis; type: in vivo, human; details: 600 mg oral dose
Procedure: Finally, we applied our fully validated method to evaluate the pharmacokinetic disposition of RIB in a patient during the first day of a treatment cycle. The plasma samples were prepared in the same manner as the single-point study samples and quantitated using a freshly prepared calibration curve. No additional dilution or preconcentration was necessary, as all the determined concentrations fell within the validated range. The corresponding data are available in Table S1 of the Supplementary Materials, Section 2 (Results of the pharmacokinetic study).
Pharmacokinetic data were analyzed with the PK solver Excel extension, using the linear trapezoidal model for non-compartmental analysis of plasma data after extravascular input. […] The beginning of the elimination phase was estimated around three hours after dosing. Ribociclib is administered as an instant release tablet dosage form, so no absorption lag was neither expected nor observed.
as §1

[5] = design: method as in PMID 28540640; details: plasma; reported PK/PD studies; cited from earlier work
[6] = higher QC level (RIB 2500, ABE 1500, PAL 250, ANA 100, LET 250, FUL 500 ng/mL)
[7] = lower QC level (RIB 62.5, ABE 37.5, PAL 6.2, ANA 2.5, LET 6.25, FUL 12.5 ng/mL)

Structure (SMILES)	Stability Bias (%) 1 FT Cycle (30 min, −18–25 °C) [1, 6]	Stability Bias (%) 2 FT Cycles (30 min, −18–25 °C) [1, 6]	Stability Bias (%) 3 FT Cycles (30 min, −18–25 °C) [1, 6]	Stability Bias (%) Long-Term (2 Weeks, −18 °C) [1, 6]	Stability Bias (%) 1 FT Cycle (30 min, −18–25 °C) [1, 7]	Stability Bias (%) 2 FT Cycles (30 min, −18–25 °C) [1, 7]	Stability Bias (%) 3 FT Cycles (30 min, −18–25 °C) [1, 7]	Stability Bias (%) Long-Term (2 Weeks, −18 °C) [1, 7]	Stability Bias (%) Autosampler (10 h, 10 °C) [1, 6]	Stability Bias (%) Autosampler (10 h, 10 °C) [1, 7]	Stability Bias (%) Bench Top (2 h, 25 °C) [1, 6]	Stability Bias (%) Bench Top (2 h, 25 °C) [1, 7]	Expected literature range Cmin–Cmax [2]	also measured
CC(C)(C#N)c1cc(Cn2cncn2)cc(C(C)(C)C#N)c1 [ANA, anastrozole]	6.65%	8.39%	−0.69%	−0.40%	−7.88%	−2.80%	−3.98%	3.09%	4.89%	2.27%	−0.62%	−10.33%	22–52.6 [27] ng/mL	Plasma Concentration ([3]; patient 5, ANA 1 mg daily): 43.96 ng/mL
CN(C)C(=O)c1cc2cnc(Nc3ccc(N4CCNCC4)cn3)nc2n1C1CCCC1 [RIB, ribociclib]	11.10%	−1.66%	−4.69%	−10.69%	7.88%	1.69%	6.00%	13.89%	−6.47%	8.95%	4.96%	6.01%	711–3500 [24] ng/mL	Elimination constant ([4]; non-compartmental analysis, PK solver): 0.022 h⁻¹; Cmax ([4]; human, first day of treatment cycle, plasma, read-out: Maximum concentration (Cmax)): 1830 ng/mL; half-life ([4]; human, plasma, non-compartmental analysis, PK solver, read-out: Elimination half-life (converted)): 31.6 h; concentration at 0 h ([4]; human, plasma, t 0.00 h, read-out: CRIB (ng/mL) plasma concentration): 945 ng/mL; concentration at 0.25 h ([4]; human, plasma, t 0.25 h, read-out: CRIB (ng/mL) plasma concentration): 1050 ng/mL; concentration at 0.5 h ([4]; human, plasma, t 0.50 h, read-out: CRIB (ng/mL) plasma concentration): 1240 ng/mL; concentration at 1 h ([4]; human, plasma, t 1.00 h, read-out: CRIB (ng/mL) plasma concentration): 1520 ng/mL; concentration at 3 h ([4]; human, plasma, t 3.00 h, read-out: CRIB (ng/mL) plasma concentration): 1830 ng/mL; concentration at 6 h ([4]; human, plasma, t 6.00 h, read-out: CRIB (ng/mL) plasma concentration): 1710 ng/mL; concentration at 12 h ([4]; human, plasma, t 12.00 h, read-out: CRIB (ng/mL) plasma concentration): 1500 ng/mL; concentration at 24 day ([3]; human, plasma, oral, patient 2, RIB 600 mg daily, sampling day 24 of cycle (off-treatment week)): 57.4 ng/mL; concentration at 16 day ([3]; human, plasma, oral, patient 3, RIB 600 mg daily, sampling day 16 (trough, steady state)): 682 ng/mL; concentration at 1 h ([3]; human, plasma, oral, patient 4, RIB 600 mg daily, sampling day 1, 1 h after dose administration): 1520 ng/mL; concentration at 12 day ([3]; human, plasma, oral, patient 5, RIB 600 mg daily, sampling day 12 (trough, steady state)): 1190 ng/mL; concentration at 28 day ([3]; human, plasma, oral, patient 6, RIB 600 mg daily, sampling day 28 (off-treatment week)): 27.2 ng/mL; concentration at 27 day ([3]; human, plasma, oral, patient 7, RIB 600 mg daily, sampling day 27 (off-treatment week)): 40.7 ng/mL
CCN1CCN(Cc2ccc(Nc3ncc(F)c(-c4cc(F)c5nc(C)n(C(C)C)c5c4)n3)nc2)CC1 [ABE, abemaciclib]	9.37%	5.68%	1.13%	3.09%	13.23%	−7.43%	14.07%	7.60%	14.88%	11.51%	−0.10%	9.09%	102.65–1381 [25] ng/mL	Minimal threshold concentration for efficacy [5]: 200 ng/mL; Plasma Concentration ([3]; patient 1, ABE 300 mg daily, continuous, before next dose): 425.79 ng/mL
